{"source": "paper doi:10.1101/2025.07.28.667221", "about": "“Pentilludin reduces rat amphetamine and remifentail self-administration with good pharmacologic and toxicologic profiles” (bioRxiv, 2025)", "key": {"mice [1]": {"system": "mice", "set-up": "method as in PMID 30348770", "conditions": "cited from earlier work"}, "mice [2]": {"system": "mice", "set-up": "method as in PMID 30348770", "conditions": "cited from earlier work", "remark": "listed apart in the source"}, "mice [3]": {"system": "mice", "conditions": "cited from earlier work"}, "Ames test": {"system": "Ames test", "test": "Ames test", "format": "cell-based", "conditions": "in vitro"}, "micronucleus test": {"system": "micronucleus test", "test": "micronucleus test", "format": "cell-based", "conditions": "in vitro"}, "hERG channels": {"target": "hERG channels (Homo sapiens, UniProt Q12809)", "sequence (Q12809 whole entry)": "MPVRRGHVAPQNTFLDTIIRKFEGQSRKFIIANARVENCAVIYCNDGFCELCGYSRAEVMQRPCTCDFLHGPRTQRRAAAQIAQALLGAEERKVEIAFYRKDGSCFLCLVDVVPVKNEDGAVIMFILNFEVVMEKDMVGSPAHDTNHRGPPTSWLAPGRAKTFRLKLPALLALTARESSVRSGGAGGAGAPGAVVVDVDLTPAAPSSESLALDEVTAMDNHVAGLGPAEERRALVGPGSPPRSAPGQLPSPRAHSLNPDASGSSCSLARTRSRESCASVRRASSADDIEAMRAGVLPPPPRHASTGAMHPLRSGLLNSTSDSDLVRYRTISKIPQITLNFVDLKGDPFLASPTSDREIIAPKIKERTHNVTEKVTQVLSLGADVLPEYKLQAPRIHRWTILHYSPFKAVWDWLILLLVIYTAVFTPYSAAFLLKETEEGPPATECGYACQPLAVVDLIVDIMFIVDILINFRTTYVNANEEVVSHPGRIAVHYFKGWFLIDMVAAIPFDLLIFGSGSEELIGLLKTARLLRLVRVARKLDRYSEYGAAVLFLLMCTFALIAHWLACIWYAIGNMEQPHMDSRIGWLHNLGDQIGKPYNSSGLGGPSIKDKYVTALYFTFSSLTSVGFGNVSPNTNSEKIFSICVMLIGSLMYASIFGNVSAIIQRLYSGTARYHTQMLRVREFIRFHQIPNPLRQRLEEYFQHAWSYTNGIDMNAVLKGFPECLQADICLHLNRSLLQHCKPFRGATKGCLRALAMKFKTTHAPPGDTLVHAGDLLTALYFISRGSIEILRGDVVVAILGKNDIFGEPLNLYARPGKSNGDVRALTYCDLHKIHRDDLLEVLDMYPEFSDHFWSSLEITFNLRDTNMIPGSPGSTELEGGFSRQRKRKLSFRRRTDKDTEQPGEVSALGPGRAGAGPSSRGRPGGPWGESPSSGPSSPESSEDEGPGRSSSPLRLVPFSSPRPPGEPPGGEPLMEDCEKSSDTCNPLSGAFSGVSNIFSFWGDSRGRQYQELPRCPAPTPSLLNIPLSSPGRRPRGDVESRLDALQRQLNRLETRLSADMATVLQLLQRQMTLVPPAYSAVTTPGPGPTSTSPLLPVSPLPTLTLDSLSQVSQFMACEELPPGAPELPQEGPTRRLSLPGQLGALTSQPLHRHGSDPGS", "test": "hERG channel activity", "conditions": "in vitro"}, "[4]": {"test": "Solubility in dosing vehicles", "format": "physicochemical", "conditions": "read-out: soluble at concentrations up to", "protocol": "Pentilludin powder was >97.5% pure following synthesis and when reanalyzed (Certificate of Analysis, GLP) 1 ½ and 2 ½ years after synthesis. Pentilludin was soluble in 6.82% Captisol in 60:40 PEG600/water (the vehicle used for initial toxicology experiments) and in PEG600 (the vehicle used for self-administration and Good Laboratory Practices testing) at concentrations up to 100 mg/ml with gentle heating."}, "[5]": {"test": "Plasma pentilludin levels after acute 20 mg/kg iv or po administration", "format": "in vivo", "conditions": "rat", "protocol": "Proteins in 50 μL plasma collected with K2EDTA as anti-coagulant were precipitated by adding 5 μL of acetonitrile with 0.5% v/v ascorbate, 200 μL of acetonitrile containing 20 ng/ml tolbutamide internal standard with 0.5% ascorbate was added, the mixture was vortexed for 1 min, centrifuged @ 4000 rpm for 15 mins and peaks in 8 μL of the supernatant were identified using an AB Sciex Triple Quad 5500 LC-MS/MS (electrospray, negative ions, Analyst 1.6.3 software) and a Waters Acquity Ultra Performance LC System with 50 × 2.1 mm Acuity UPLC Beh C18 1.7 μm column eluted for 2.5 min @ 22°C @ 0.5 ml/min with Mobile Phase A (5mM NH4OAc in water with 0.05% formic acid) and mobile phase B (acetonitrile with 0.1% formic acid) with changes in % A as follows: 60, 10, 5, and 60. Standards were quantitated at concentrations ranging from 1– 2000 ng/mL."}, "[6]": {"system": "rats trained to self-administer amphetamine iv", "test": "Amphetamine self-administration", "format": "in vivo", "conditions": "rat", "protocol": "(§1) Young adult Sprague-Dawley rats (Charles River Laboratories, Raleigh, NC, USA) were singly housed on a reverse 12:12 day night cycle and tested during their active (dark) phase in studies approved by the Duke Institutional Animal Care and Use Committee. Rats had catheters surgically implanted in their jugular veins to provide access for self-administration by IV infusion. Briefly, rats were anesthetized with i.p. injections of ketamine (Fort Dodge Animal Health, Fort Dodge, IA, USA; […]) with the addition of Dexdomitor (Pfizer, New York, NY, USA; 0.15 mg/kg) which is a sedative and analgesic agent. Before surgery, ketoprofen (5 mg/kg, s.c.) was administered to reduce post-operative pain and inflammation. A plastic SoloPort was attached intraoperatively to a polyurethane catheter and inserted into a subcutaneous interscapular pocket and sutured to underlying fascia.\n(§2) The day following surgery, the rats began self-administration sessions with amphetamine (0.1 mg/kg/infusion, iv) or remifentanil (0.3 μg/kg/infusion, iv) as reinforcers. […] Each infusion was followed by a 20-sec timeout in which the house light goes on and cue light goes out. Responses were recorded but not reinforced during this interval. […] There were five sessions of training for self-administration before the onset of pentilludin drug treatment sessions. All of the animals had the same number of training sessions to provide all with equal testing history. Each infusion session lasted for one hour. Animals were tested not more than once/day between 9 AM and 4 PM.\n(§3) At the end of each study catheter patency was confirmed by assessing sedation following methohexital (brevital) administration through the catheter. […] Self-administration results, differences from baseline levels, were assessed for statistical for significance with analysis of variance. To control for baseline differences in self-administration, the self-administration with pentilludin or vehicle treatment was analyzed as a difference from each animal’s self-administration on the last two sessions of baseline training. […]"}, "[7]": {"system": "rats trained to self-administer remifentanil iv", "test": "Remifentanil self-administration", "format": "in vivo", "conditions": "rat", "protocol": "as §1, §2, §3"}, "rats": {"system": "rats", "test": "Lever pressing for self-administration of food pellets", "format": "in vivo", "conditions": "rat, eight sessions of testing"}, "dogs": {"system": "dogs", "test": "Two week oral dosing in dogs, kidney pathology", "format": "in vivo, dog", "conditions": "15 mg/kg/d po for two weeks"}, "[8]": {"test": "Metabolism in rat liver microsomes", "format": "in vitro ADME"}, "[9]": {"test": "Metabolism in human liver microsomes", "format": "in vitro ADME"}, "Metabolism in rat plasma": {"test": "Metabolism in rat plasma", "format": "in vitro ADME"}, "[10]": {"test": "Metabolism in human plasma", "format": "in vitro ADME"}, "recombinant paraoxonase": {"system": "recombinant paraoxonase", "test": "Interaction with recombinant paraoxonase", "format": "in vitro ADME", "conditions": "initial work"}, "[11]": {"target": "receptor type protein tyrosine phosphatase D (PTPRD)", "set-up": "method as in PMID 34863978", "conditions": "likely irreversible; read-out: potency in inhibiting PTPRD's phosphatase; cited from earlier work"}, "[12]": {"system": "receptor type protein tyrosine phosphatase S (PTPRS)", "set-up": "method as in PMID 35636503", "conditions": "cited from earlier work"}, "[13]": {"system": "receptor type protein tyrosine phosphatase F (PTPRF)", "set-up": "method as in PMID 35636503", "conditions": "cited from earlier work"}, "[14]": {"system": "receptor type protein tyrosine phosphatase J (PTPRJ)", "set-up": "method as in PMID 35636503", "conditions": "cited from earlier work"}, "[15]": {"system": "nonreceptor type protein tyrosine phosphatase 1 (PTPN1/ PTP1B)", "set-up": "method as in PMID 35636503", "conditions": "cited from earlier work"}, "[16]": {"system": "targets of the NIDA-EUROFINS assays (virtually all targets of currently marketed drugs)", "set-up": "method as in PMID 34863978", "conditions": "cited from earlier work"}, "[17]": {"test": "Repeated two week daily oral administration toxicity (observational battery, weight, chemistry, hematology, histopathology)", "conditions": "rat"}, "[18]": {"conditions": "20 mg/kg sc prior to every other session, 20 mg/kg"}}, "note": "“Also recorded” adds a separate entry of the source. Read-outs that look alike come from different tables or passages of the source.", "data": [{"molecule": "CCCCOc1cc2c(c(C=O)c1OC)CC(O)OC2=O", "note": "(stereo not drawn) [7-BIA]", "values": [{"measurement": "stimulant reward, cocaine conditioned place preference", "setting": "mice [1]", "result": "reduces stimulant reward"}, {"measurement": "stimulant reward, cocaine self-administration", "setting": "mice [2]", "result": "reduces stimulant reward"}, {"measurement": "toxicity on weeks-long repeated treatments", "setting": "mice [3]", "result": "little evidence for toxicity"}]}, {"molecule": "COc1c(OCC2CCCC2)cc2c(c1C=O)CC(O)OC2=O", "note": "(stereo not drawn) [Pentilludin]", "values": [{"measurement": "activity in Ames test", "setting": "Ames test", "result": "no in vitro activities"}, {"measurement": "activity in micronucleus test", "setting": "micronucleus test", "result": "no in vitro activities"}, {"measurement": "activity at hERG channels", "setting": "hERG channels", "result": "no in vitro activities"}, {"measurement": "solubility", "setting": "[4]; 6.82% Captisol in 60:40 PEG600/water (dosing vehicle), 6.82% Captisol in 60:40 PEG600/water, gentle heating", "result": "≤ 100", "unit": "mg/mL"}, {"measurement": "solubility", "setting": "[4]; PEG600 (dosing vehicle), PEG600, gentle heating", "result": "≤ 100", "unit": "mg/mL"}, {"measurement": "bioavailability", "setting": "[5]; plasma, po, 20 mg/kg, data from 0.5 to 4h, read-out: bioavailability for po pentilludin in PEG600", "result": 15, "unit": "%"}, {"measurement": "concentration at 0.08 h", "setting": "[5]; plasma, IV 20.0 mg/kg, 0.08 h", "result": 62200, "unit": "ng/mL"}, {"measurement": "concentration at 0.5 h", "setting": "[5]; plasma, IV 20.0 mg/kg, 0.50 h", "result": 2920, "unit": "ng/mL"}, {"measurement": "concentration at 4 h", "setting": "[5]; plasma, IV 20.0 mg/kg, 4.0 h", "result": 4.98, "unit": "ng/mL"}, {"measurement": "concentration at 0.5 h", "setting": "[5]; plasma, PO 20.0 mg/kg in PEG600, 0.50 h", "result": 449, "unit": "ng/mL"}, {"measurement": "concentration at 2 h", "setting": "[5]; plasma, PO 20.0 mg/kg in PEG600, 2.0 h", "result": 146, "unit": "ng/mL"}, {"measurement": "concentration at 4 h", "setting": "[5]; plasma, PO 20.0 mg/kg in PEG600, 4.0 h", "result": 17.1, "unit": "ng/mL"}, {"measurement": "terminal half-life of plasma pentilludin", "setting": "[5]; 20 mg/kg", "result": "between one and two"}, {"measurement": "signs of gross toxicity", "setting": "[5]; acute 20 mg/kg", "result": "no signs of gross toxicity"}, {"measurement": "reduction of amphetamine self-administration overall relative to controls", "setting": "[6]; 20 mg/kg sc prior to every other session, 12 sessions", "result": 6.2, "unit": "infusions per session"}, {"measurement": "effect on amphetamine self-administration", "setting": "[6]; [18]", "result": "substantially reduces; also recorded: robustly reduced"}, {"measurement": "decrease of amphetamine self-administration from last acquisition sessions", "setting": "[6]; 20 mg/kg sc, last two of 12 sessions", "result": 23, "unit": "%"}, {"measurement": "effect on remifentanil self-administration", "setting": "[7]; [18]", "result": "more modestly reduces; also recorded: significantly attenuated the increase"}, {"measurement": "smaller increase in remifentanil self-administration relative to vehicle-treated controls", "setting": "[7]; 20 mg/kg sc, 11th and 12th sessions", "result": 26.5, "unit": "%"}, {"measurement": "responding on the control lever", "setting": "[7]; remifentanil self-administration", "result": "did not differ"}, {"measurement": "food pellets per one-hour session", "setting": "rats", "result": "85.6 ± 6.3", "unit": "food pellets"}, {"measurement": "kidney pathology", "setting": "dogs", "result": "fail to display any kidney pathology"}, {"measurement": "metabolism", "setting": "[8]", "result": "only modest metabolism"}, {"measurement": "metabolism", "setting": "[9]", "result": "only modest metabolism"}, {"measurement": "metabolism", "setting": "Metabolism in rat plasma", "result": "robust metabolism"}, {"measurement": "metabolism", "setting": "[10]", "result": "robust metabolism"}, {"measurement": "interaction with recombinant paraoxonase", "setting": "recombinant paraoxonase", "result": "interacts avidly"}, {"measurement": "IC50", "setting": "[11]", "result": 690, "unit": "nM"}, {"measurement": "potency at PTPRS", "setting": "[12]", "result": "some potency"}, {"measurement": "potency at PTPRF", "setting": "[13]", "result": "some potency"}, {"measurement": "potency at PTPRJ", "setting": "[14]", "result": "less potency"}, {"measurement": "potency at PTPN1/ PTP1B", "setting": "[15]", "result": "less potency"}, {"measurement": "IC50", "setting": "[16]", "result": "≥ 100000", "unit": "nM"}, {"measurement": "activity at targets for currently-licensed drugs", "setting": "[16]; in vitro", "result": "no in vitro activities"}, {"measurement": "oral intake and weight", "setting": "mice [3]; daily ≥ 150 mg/kg po", "result": "reduce oral intake and lose weight starting on about the 4th day"}, {"measurement": "toxicity on weeks-long repeated treatments", "setting": "mice [3]; pentilludin doses up to 100 mg/kg/d po", "result": "little evidence for toxicity"}, {"measurement": "weight loss", "setting": "mice [3]; repeated doses of 100 mg/kg/day", "result": "no weight loss"}, {"measurement": "serum chemistry abnormalities in measures relating to renal function", "setting": "[17]; 150 mg/kg/d", "result": "no serum chemistry abnormalities"}, {"measurement": "proteinuria", "setting": "[17]; 150 mg/kg/d po two weeks, 150 mg/kg/day", "result": "proteinuria in rats treated with 150 mg/kg/d that recovered within two weeks of the end of pentilludin administration; also recorded: modest and reversible proteinuria"}, {"measurement": "effects on the observational battery, weight, plasma chemistries or hematological assessments", "setting": "[17]; 50 or 75 mg/kg po daily in PEG600, two weeks", "result": "no significant effects"}, {"measurement": "kidney histopathology", "setting": "[17]; daily doses for two weeks, also found with vehicle", "result": "basophilic lesions in the kidneys of a number of the rats"}, {"measurement": "alterations in serum chemistries related to renal function", "setting": "[17]; doses up to 100 mg/kg/d", "result": "None of the rats treated with doses up to 100 mg/kg/d displayed alterations"}, {"measurement": "behavioral, hematologic or serum chemistry abnormalities", "setting": "[17]; doses up to 100 mg/kg/day for two weeks", "result": "have not been found to display behavioral, hematologic or serum chemistry abnormalities"}, {"measurement": "effects on histopathology", "setting": "[17]; good laboratory practices toxicology study, 50 or 75 mg/kg/d po two weeks", "result": "no pentilludin-associated effects detected"}, {"measurement": "effect on plasma chemistry, hematology and behavioral observation batteries", "setting": "[17]; good laboratory practices work", "result": "lack of effect"}]}]}
